# Source: ChEMBL document CHEMBL5724914, “Linking interpersonal differences in gut microbiota composition and drug biotransformation activity” (2024)
# Assays:
# [1] = (§1) The drug is tested on Z-028 corresponding to mouse gut metagenome with ENA study accession number: PRJEB37062 and ENA sample accession number: ERS12561827 for biotransformation under anaerobic condition. The drug concentrations were measured over 9 timepoints collected between 0 and 24 hours of incubation by liquid-chromatography-coupled mass spectrometry (LC–MS); conditions: 2 µM
# [2] = as §1, with “Z-026” for “Z-028”, “to” for “to mouse gut”, “ERS12561825” for “ERS12561827”; conditions: 2 µM
# [3] = as §1, with “Z-023” for “Z-028”, “to” for “to mouse gut”, “ERS12561822” for “ERS12561827”; conditions: 2 µM
# [4] = as §1, with “Z-017” for “Z-028”, “ERS12561816” for “ERS12561827”; conditions: 2 µM
# [5] = as §1, with “Z-016” for “Z-028”, “ERS12561815” for “ERS12561827”; conditions: 2 µM
# [6] = as §1, with “Z-011” for “Z-028”, “ERS12561811” for “ERS12561827”; conditions: 2 µM
# [7] = as §1, with “WLS-086” for “Z-028”, “human” for “mouse”, “ERS12561752” for “ERS12561827”; conditions: 2 µM
# [8] = as §1, with “WLS-082” for “Z-028”, “human” for “mouse”, “ERS12561751” for “ERS12561827”; conditions: 2 µM
# [9] = human gut metagenome, 24 h, 2 µM
# [10] = human gut metagenome, 24 h, 2 µM; remark: listed apart in the source
# [11] = human gut metagenome, 24 h, 2 µM; remark: listed apart in the source
# [12] = human gut metagenome, 24 h, 2 µM; remark: listed apart in the source
# [13] = human gut metagenome, 24 h, 2 µM; remark: listed apart in the source
# [14] = human gut metagenome, 24 h, 2 µM; remark: listed apart in the source
# [15] = human gut metagenome, 24 h, 2 µM; remark: listed apart in the source
# [16] = human gut metagenome, 24 h, 2 µM; remark: listed apart in the source
# [17] = human gut metagenome, 24 h, 2 µM; remark: listed apart in the source
# [18] = human gut metagenome, 24 h, 2 µM; remark: listed apart in the source
# [19] = human gut metagenome, 24 h, 2 µM; remark: listed apart in the source
# [20] = human gut metagenome, 24 h, 2 µM; remark: listed apart in the source
# Note: call rule not given here.
Bacterial Biotransformation [1],Bacterial Biotransformation [2],Bacterial Biotransformation [3],Bacterial Biotransformation [4],Bacterial Biotransformation [5],Bacterial Biotransformation [6],Bacterial Biotransformation [7],Bacterial Biotransformation [8],Bacterial Biotransformation [9],Bacterial Biotransformation [10],Bacterial Biotransformation [11],Bacterial Biotransformation [12],Bacterial Biotransformation [13],Bacterial Biotransformation [14],Bacterial Biotransformation [15],Bacterial Biotransformation [16],Bacterial Biotransformation [17],Bacterial Biotransformation [18],Bacterial Biotransformation [19],Bacterial Biotransformation [20],SMILES
Compound NOT metabolized,Compound NOT metabolized,Compound NOT metabolized,Compound NOT metabolized,Compound NOT metabolized,Compound NOT metabolized,Compound NOT metabolized,Compound NOT metabolized,Compound NOT metabolized,Compound NOT metabolized,Compound NOT metabolized,Compound NOT metabolized,Compound NOT metabolized,Compound NOT metabolized,Compound NOT metabolized,Compound NOT metabolized,Compound NOT metabolized,Compound NOT metabolized,Compound NOT metabolized,Compound NOT metabolized,N=C(N)NC(=O)Cc1c(Cl)cccc1Cl [GUANFACINE]
Compound NOT metabolized,Compound NOT metabolized,Compound NOT metabolized,Compound NOT metabolized,Compound NOT metabolized,Compound NOT metabolized,Compound metabolized,Compound NOT metabolized,Compound NOT metabolized,Compound NOT metabolized,Compound NOT metabolized,Compound NOT metabolized,Compound NOT metabolized,Compound NOT metabolized,Compound NOT metabolized,Compound NOT metabolized,Compound NOT metabolized,Compound NOT metabolized,Compound NOT metabolized,Compound NOT metabolized,Nc1nc(N)nc(-c2cc(Cl)ccc2Cl)n1.O=C(O)/C=C\C(=O)O [IRSOGLADINE MALEATE]
Compound NOT metabolized,Compound NOT metabolized,Compound NOT metabolized,Compound NOT metabolized,Compound NOT metabolized,Compound NOT metabolized,Compound metabolized,Compound NOT metabolized,Compound NOT metabolized,Compound NOT metabolized,Compound NOT metabolized,Compound NOT metabolized,Compound NOT metabolized,Compound NOT metabolized,Compound metabolized,Compound metabolized,Compound NOT metabolized,Compound NOT metabolized,Compound metabolized,Compound metabolized,CN1CCC(=C2c3ccccc3CC(=O)c3sccc32)CC1.O=C(O)/C=C/C(=O)O [KETOTIFEN FUMARATE]

# Further lines, the compound ahead of its results:
SMILES,Bacterial Biotransformation [1],Bacterial Biotransformation [2],Bacterial Biotransformation [3],Bacterial Biotransformation [4],Bacterial Biotransformation [5],Bacterial Biotransformation [6],Bacterial Biotransformation [7],Bacterial Biotransformation [8],Bacterial Biotransformation [9],Bacterial Biotransformation [10],Bacterial Biotransformation [11],Bacterial Biotransformation [12],Bacterial Biotransformation [13],Bacterial Biotransformation [14],Bacterial Biotransformation [15],Bacterial Biotransformation [16],Bacterial Biotransformation [17],Bacterial Biotransformation [18],Bacterial Biotransformation [19],Bacterial Biotransformation [20]
C[C@]12CCC(=O)C=C1[C@@H]1C[C@@H]1[C@H]1[C@@H]3[C@@H]4C[C@@H]4[C@@]4(CCC(=O)O4)[C@@]3(C)CC[C@@H]12 [DROSPIRENONE],Compound NOT metabolized,Compound NOT metabolized,Compound metabolized,Compound metabolized,Compound metabolized,Compound NOT metabolized,Compound metabolized,Compound metabolized,Compound metabolized,Compound metabolized,Compound metabolized,Compound NOT metabolized,Compound metabolized,Compound metabolized,Compound metabolized,Compound metabolized,Compound NOT metabolized,Compound NOT metabolized,Compound metabolized,Compound NOT metabolized
CC(C)c1c(CN(C)C(C)Cc2ccccc2)n(C)n(-c2ccccc2)c1=O (stereo not given) [FAMPROFAZONE],Compound NOT metabolized,Compound NOT metabolized,Compound metabolized,Compound NOT metabolized,Compound metabolized,Compound metabolized,Compound metabolized,Compound metabolized,Compound metabolized,Compound metabolized,Compound metabolized,Compound metabolized,Compound metabolized,Compound metabolized,Compound metabolized,Compound metabolized,Compound metabolized,Compound metabolized,Compound metabolized,Compound metabolized
CC[C@H](C)C(=O)O[C@H]1CCC=C2C=C[C@H](C)[C@H](CC[C@@H]3C[C@@H](O)CC(=O)O3)[C@H]21 [MEVASTATIN],Compound metabolized,Compound metabolized,Compound metabolized,Compound metabolized,Compound NOT metabolized,Compound NOT metabolized,Compound metabolized,Compound metabolized,Compound NOT metabolized,Compound NOT metabolized,Compound metabolized,Compound NOT metabolized,Compound metabolized,Compound NOT metabolized,Compound metabolized,Compound metabolized,Compound metabolized,Compound NOT metabolized,Compound metabolized,Compound NOT metabolized
COc1ccc2cc([C@H](C)C(=O)O)ccc2c1 [NAPROXEN],Compound NOT metabolized,Compound NOT metabolized,Compound NOT metabolized,Compound NOT metabolized,Compound NOT metabolized,Compound NOT metabolized,Compound metabolized,Compound metabolized,Compound metabolized,Compound metabolized,Compound metabolized,Compound NOT metabolized,Compound metabolized,Compound NOT metabolized,Compound metabolized,Compound metabolized,Compound NOT metabolized,Compound NOT metabolized,Compound metabolized,Compound metabolized
C#C[C@]1(OC(C)=O)CC[C@H]2[C@@H]3CCC4=C/C(=N/O)CC[C@@H]4[C@H]3CC[C@@]21CC [NORGESTIMATE],Compound NOT metabolized,Compound NOT metabolized,Compound NOT metabolized,Compound NOT metabolized,Compound NOT metabolized,Compound NOT metabolized,Compound metabolized,Compound metabolized,Compound metabolized,Compound metabolized,Compound NOT metabolized,Compound NOT metabolized,Compound NOT metabolized,Compound metabolized,Compound metabolized,Compound metabolized,Compound metabolized,Compound metabolized,Compound NOT metabolized,Compound metabolized
